According to US10040804B2, “Compounds targeting proteins, compositions, methods, and uses thereof” (BioTheryX, Inc., priority 2016, dated 2018):

What was measured:
[1] = system: IL-1β; experiment: IL-1β expression in LPS stimulated PBMCs (Meso Scale); type: cell-based, human; details: Homo sapiens, PBMC, compound concentration 1 μM
Procedure, shortened: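 Human PBMCs (200,000 cells/well in RPMI-1640/10% FBS) were pretreated with compound for 1 h, then stimulated with 100 ng/mL LPS for 18-24 h. IL-1β in supernatant was measured by Meso Scale assay. Activity is expressed as percentage of LPS-induced level, with DMSO-treated wells as negative control.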

[2] = system: IL-6; experiment: IL-6 expression in LPS stimulated PBMCs (Meso Scale); type: cell-based, human; details: Homo sapiens, PBMC; compound concentration 1 μM; LPS-stimulated PBMCs
Procedure, shortened: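 Thawed human PBMCs at 200,000 cells/well in RPMI-1640/10% FBS were pretreated with compound or DMSO for 1 h, then stimulated with 100 ng/mL LPS for 18–24 h. Supernatant IL-6 was measured by Meso Scale assay and expressed as % of LPS-induced activity.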

[3] = system: TNF-α; experiment: TNF-α expression in LPS stimulated PBMCs (Meso Scale); type: cell-based, human; details: Homo sapiens, PBMC, compound concentration 1 μM
Procedure, shortened: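 Thawed primary human PBMCs, 200,000 cells/well in RPMI-1640/10% FBS, pretreated with compound 1 h, then stimulated with 100 ng/mL LPS for 18-24 h. Supernatant TNF-α measured by Meso Scale assay; activity expressed as percentage of LPS-induced level, DMSO as negative control.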

[4] = system: IL-2; experiment: anti-CD3-induced IL-2 secretion in PBMCs; type: cell-based; details: Homo sapiens, PBMC; compound concentration 1 μM; anti-CD3 stimulated PBMCs, 24 h; DMSO = 1.0; read-out: Fold Change IL-2
Procedure, shortened: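 PBMCs stimulated on plates coated with 1 ug/mL anti-CD3 (OKT3), with compound or DMSO, 24 h. Supernatant IL-2 measured by Mesoscale; activity expressed as fold difference from DMSO-stimulated control.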

[5] = target: T1, GSPT1 (Homo sapiens, UniProt P15170); experiment: GSPT1 protein levels by Western Blot analysis; type: cell-based; details: DMSO = 100.00; for remaining activity at 0.1 µM: 100 nM compound concentration; for remaining activity at 1 µM: 1 μM compound concentration
T1 construct: Whole cell extracts were prepared using RIPA buffer according to manufacturer's protocol (Pierce); endogenous in cells
Procedure, shortened: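 Molm-13 AML cells in RPMI 1640 with 10% FBS, about 10^6 cells/mL, treated with compound or DMSO for 6-8 h. RIPA whole-cell lysates resolved by SDS-PAGE, blotted and probed for GSPT1 with β-actin reference; IRDye secondary antibodies quantified by LI-COR Odyssey infrared imaging.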

[6] = system: H1048 cells; experiment: H1048 cell viability (CellTiter-Glo); type: cell-based; details: Homo sapiens, NCI-H1048, 72 h, H1048, 3 days, DMSO = 100.00; for viability at 1 µM: 1 μM compound concentration; for viability at 10 µM: 10 μM compound concentration
Procedure, shortened: (§1)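 Molm-13 (RPMI-1640, 10% FBS) and H1048 (DMEM:F12, 5% FBS with supplements) plated at 20,000 cells/well, treated with compound or 0.1% DMSO for 3 days at 37° C., 5% CO2. Viability read by CellTiter-Glo luminescence after 10 min.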

[7] = system: Molm-13 cells; experiment: Molm-13 cell viability (CellTiter-Glo); type: cell-based; details: Homo sapiens, MOLM-13, read-out: % Inhibition (MOLM-13 Cell Viability); for cytotoxicity at 0.3 µM: compound concentration 0.3 μM; for cytotoxicity at 10 µM: compound concentration 10 μM
Procedure, shortened: as §1

[8] = system: MDA-MB-231 cells; experiment: MDA-MB-231 cell viability (CellTiter-Glo); type: cell-based; details: Homo sapiens, 72 h, 3 days, DMSO = 100.00; for viability at 1 µM: 1 μM compound concentration; for viability at 10 µM: 10 μM compound concentration
Procedure, shortened: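 Cells in DMEM with 10% FBS, seeded at 10,000 per well, exposed to compound (0.1% DMSO control) for 3 days at 37° C, 5% CO2. Viability read by CellTiter-Glo luminescence after 10 min shaking.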

T1 sequence (P15170 whole entry): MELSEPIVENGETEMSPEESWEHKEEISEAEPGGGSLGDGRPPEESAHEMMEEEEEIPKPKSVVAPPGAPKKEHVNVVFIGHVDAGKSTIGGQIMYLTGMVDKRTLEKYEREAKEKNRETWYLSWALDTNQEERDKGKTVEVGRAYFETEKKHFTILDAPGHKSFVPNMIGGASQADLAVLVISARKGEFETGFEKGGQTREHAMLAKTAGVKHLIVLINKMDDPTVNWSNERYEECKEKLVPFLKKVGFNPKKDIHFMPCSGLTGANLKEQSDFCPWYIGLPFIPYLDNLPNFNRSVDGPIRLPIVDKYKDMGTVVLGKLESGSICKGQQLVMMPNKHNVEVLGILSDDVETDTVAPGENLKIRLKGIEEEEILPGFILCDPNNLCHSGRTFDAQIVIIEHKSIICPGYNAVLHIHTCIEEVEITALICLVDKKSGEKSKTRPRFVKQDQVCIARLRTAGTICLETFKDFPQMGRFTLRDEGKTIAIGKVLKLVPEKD
T1 sequence (Q96SW2 whole entry, further chain): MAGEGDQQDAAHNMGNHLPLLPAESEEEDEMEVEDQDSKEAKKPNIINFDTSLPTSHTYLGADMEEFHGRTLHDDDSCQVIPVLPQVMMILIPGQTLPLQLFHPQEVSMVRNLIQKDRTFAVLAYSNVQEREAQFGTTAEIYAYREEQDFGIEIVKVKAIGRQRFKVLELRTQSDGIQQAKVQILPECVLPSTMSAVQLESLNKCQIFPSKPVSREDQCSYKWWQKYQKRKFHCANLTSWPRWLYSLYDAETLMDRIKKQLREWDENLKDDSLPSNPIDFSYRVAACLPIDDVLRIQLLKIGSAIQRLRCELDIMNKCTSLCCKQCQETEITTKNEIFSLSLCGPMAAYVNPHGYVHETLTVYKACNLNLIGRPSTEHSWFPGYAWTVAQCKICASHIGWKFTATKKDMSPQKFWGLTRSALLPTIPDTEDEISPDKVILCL
T1 sequence (Q16531 whole entry partner): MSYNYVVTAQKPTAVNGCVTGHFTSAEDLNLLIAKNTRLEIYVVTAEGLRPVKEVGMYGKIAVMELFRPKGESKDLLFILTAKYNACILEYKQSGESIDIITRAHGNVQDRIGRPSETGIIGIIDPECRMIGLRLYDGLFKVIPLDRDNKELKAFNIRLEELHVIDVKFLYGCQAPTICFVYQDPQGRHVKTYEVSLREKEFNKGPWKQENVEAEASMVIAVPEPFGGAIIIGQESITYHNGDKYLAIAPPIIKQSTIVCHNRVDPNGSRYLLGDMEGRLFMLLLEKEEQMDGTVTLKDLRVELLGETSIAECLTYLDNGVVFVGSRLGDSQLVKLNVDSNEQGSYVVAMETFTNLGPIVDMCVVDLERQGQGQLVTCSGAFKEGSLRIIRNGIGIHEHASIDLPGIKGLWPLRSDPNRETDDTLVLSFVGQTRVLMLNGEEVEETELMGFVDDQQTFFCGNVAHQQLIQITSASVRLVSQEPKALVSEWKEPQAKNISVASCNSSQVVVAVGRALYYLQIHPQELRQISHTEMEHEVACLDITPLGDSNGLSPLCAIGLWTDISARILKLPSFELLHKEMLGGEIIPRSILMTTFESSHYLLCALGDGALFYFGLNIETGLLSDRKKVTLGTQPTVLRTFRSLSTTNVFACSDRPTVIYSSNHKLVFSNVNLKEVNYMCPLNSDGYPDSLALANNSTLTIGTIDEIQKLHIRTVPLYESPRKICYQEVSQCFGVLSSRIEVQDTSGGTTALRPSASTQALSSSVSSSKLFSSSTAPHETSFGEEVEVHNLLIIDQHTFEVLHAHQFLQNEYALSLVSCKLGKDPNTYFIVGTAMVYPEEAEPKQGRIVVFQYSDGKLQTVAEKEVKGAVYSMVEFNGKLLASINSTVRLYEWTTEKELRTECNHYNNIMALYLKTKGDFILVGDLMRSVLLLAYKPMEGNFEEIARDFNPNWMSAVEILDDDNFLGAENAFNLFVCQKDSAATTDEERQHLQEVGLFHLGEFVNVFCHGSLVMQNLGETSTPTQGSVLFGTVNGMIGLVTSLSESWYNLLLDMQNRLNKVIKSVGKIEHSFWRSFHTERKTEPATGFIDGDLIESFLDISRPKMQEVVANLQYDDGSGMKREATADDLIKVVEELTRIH

SMILES	inhibition at 1 µM [1] [%]	inhibition at 1 µM [2] [%]	inhibition at 1 µM [3] [%]	fold induction at 1 µM [4]	remaining activity at 0.1 µM [5] [%]	remaining activity at 1 µM [5] [%]	viability at 1 µM [6] [%]	viability at 10 µM [6] [%]	cytotoxicity at 0.3 µM [7] [%]	viability at 1 µM [8] [%]	viability at 10 µM [8] [%]	cytotoxicity at 10 µM [7] [%]	cytotoxicity at 0.02 µM ([7]; compound concentration 0.02 μM) [%]	cytotoxicity at 0.8 µM ([7]; compound concentration 0.8 μM) [%]	cytotoxicity at 0.1 µM ([7]; compound concentration 0.1 μM) [%]
Cc1ccc(NC(=O)NCc2scc3c2CN([C@H]2CCCC(=O)NC2=O)C3=O)cc1C(F)(F)F [Compound 38, (S)-1-((5-(2,7-Dioxoazepan-3-yl)-4-oxo-5,6-dihydro-4H-thieno[3,4-c]pyrrol-1-yl)methyl)-3-(4-methyl-3-(trifluoromethyl)phenyl)urea]	84	94	87	0.6	49	5.52	8.35	7.89	50	54.7	27.6	–	–	–	–
Cc1ccc(CNC(=O)NCc2cc3c(s2)C(=O)N([C@H]2CCCC(=O)NC2=O)C3)cc1Cl [Compound 39, (S)-1-(3-Chloro-4-methylbenzyl)-3-((5-(2,7-dioxoazepan-3-yl)-6-oxo-5,6-dihydro-4H-thieno[2,3-c]pyrrol-2-yl)methyl)urea]	24	0	18	1.4	87.4	96	58.3	19.9	–	105	101	9	–	–	–
Cc1ccc(NC(=O)NCc2cc3c(s2)C(=O)N(C2CCC(=O)NC2=O)C3)cc1Cl (centres unmarked) [Compound 40, 1-(3-Chloro-4-methylphenyl)-3-((5-(2,6-dioxopiperidin-3-yl)-6-oxo-5,6-dihydro-4H-thieno[2,3-c]pyrrol-2-yl)methyl)urea]	37	17	34	0.3	46	40	12.9	13.6	–	57.7	50	–	50	–	–
Cc1ccc(NC(=S)NCc2scc3c2CN([C@H]2CCCC(=O)NC2=O)C3=O)cc1Cl [Compound 41]	89	95	90	0.3	55.2	6.4	9.42	9.37	50	58.2	30	–	–	–	–
Cc1ccc(NC(=O)NCc2scc3c2CN([C@H]2CCCC(=O)NC2=O)C3=O)cc1C(C)C [Compound 42, (S)-1-((5-(2,7-Dioxoazepan-3-yl)-4-oxo-5,6-dihydro-4H-thieno[3,4-c]pyrrol-1-yl)methyl)-3-(3-isopropyl-4-methylphenyl)urea]	91	97	90	0.4	50.7	8.44	8.7	8.68	–	57.6	30.5	–	–	50	–
Cc1c(Cl)cc(NC(=O)NCc2scc3c2CN([C@H]2CCCC(=O)NC2=O)C3=O)cc1C(C)C [Compound 43, (S)-1-(3-Chloro-5-isopropyl-4-methylphenyl)-3-((5-(2,7-dioxoazepan-3-yl)-4-oxo-5,6-dihydro-4H-thieno[3,4-c]pyrrol-1-yl)methyl)urea]	73	88	77	0.5	56	14.2	7.97	7.63	–	55.2	23.7	100	–	–	–
Cc1ccc(CNC(=O)NCc2cc3c(s2)C(=O)N(C2CCC(=O)NC2=O)C3)cc1Cl (centres unmarked) [Compound 44, 1-(3-Chloro-4-methylbenzyl)-3-((5-(2,6-dioxopiperidin-3-yl)-6-oxo-5,6-dihydro-4H-thieno[2,3-c]pyrrol-2-yl)methyl)urea]	45	6	41	1	57.3	53.6	13.8	14.3	–	64.6	56.5	–	–	–	50
